Test results from US5858684A, “Method of screening calcium receptor-active molecules” (priority 1995, dated 1999).
Entries after “also recorded” stand apart in the source; their conditions may differ.

Tests used:
[1] = serum/blood ionized Ca2+ in rats; assay type: in vivo, rat; conditions: i.p.
Experimental: (§1) Compounds shown to activate the bovine parathyroid cell calcium receptor in vitro were tested for hypocalcemic activity in vivo. Male Sprague-Dawley rats (200 g) were maintained on a low calcium diet for one week prior to receiving test substance or vehicle as control. Blood was collected from the tail vein three hours after the intraperitoneal administration of NPS 467. […] Serum total calcium, albumin and phosphate were measured by techniques well known in the art.
Rats (male, Sprague-Dawley, 250-300 g) were fed standard rat chow and fasted overnight prior to the experiment. NPS R-467 was suspended in corn oil and administered as a single oral dose through a gavage needle. Three hours later a sample of blood was taken from the tail vein and assessed for ionized Ca^2+ levels.

circulating PTH in rats = assay type: in vivo, rat
[2] = serum albumin and phosphate in rats; assay type: in vivo, rat; conditions: any dose examined
Experimental: as §1

[3] = test system: parathyroid cell calcium receptor; assay type: cell-based
Experimental: For example, bovine parathyroid cells loaded with fura-2 are initially suspended in buffer containing 0.5 mM CaCl2. A test substance is added to the cuvette in a small volume (5-15 μl) and changes in the fluorescence signal are measured. Cumulative increases in the concentration of the test substance are made in the cuvette until some predetermined concentration is achieved or no further changes in fluorescence are noted.
This section describes procedures used to obtain and treat parathyroid cells from calves and humans. […] Human parathyroid glands, were obtained from patients undergoing surgical removal of parathyroid tissue for primary or uremic hyperparathyroidism (uremic HPT), and were treated similarly to bovine tissue.
Glands were trimmed of excess fat and connective tissue and then minced with fine scissors into cubes approximately 2-3 mm on a side. Dissociated parathyroid cells were prepared by collagenase digestion and then purified by centrifugation in Percoll buffer. The resultant parathyroid cell preparation was essentially devoid of red blood cells, adipocytes, and capillary tissue as assessed by phase contrast microscopy and Sudan black B staining. Dissociated and purified parathyroid cells were present as small clusters containing 5 to 20 cells.
The cells were then pelleted, resuspended in the same buffer, but lacking the ester, and incubated a further 15 minutes at 37° C. The cells were subsequently washed twice with PCB containing 0.5 mM CaCl2 and 0.5% BSA and maintained at room temperature (about 20° C.). Immediately before use, the cells were diluted five-fold with prewarmed 0.5 mM CaCl2 -PCB to obtain a final BSA concentration of 0.1%. The concentration of cells in the cuvette used for fluorescence recording was 1-2×10^6 /ml.
The fluorescence of indicator-loaded cells was measured at 37° C. in a spectrofluorimeter (Biomedical Instrumentation Group, University of Pennsylvania, Philadelphia, Pa.) equipped with a thermostated cuvette holder and magnetic stirrer using excitation and emission wavelengths of 340 and 510 nm, respectively. […] Leakage of dye is dependent on temperature and most occurs within the first 2 minutes after warming the cells in the cuvette. Dye leakage increases only very slowly thereafter. To correct the calibration for dye leakage, cells were placed in the cuvette and stirred at 37° C. for 2-3 minutes. The cell suspension was then removed, the cells pelleted, and the supernatant returned to a clean cuvette. […] This estimate was subtracted from the apparent Fmin.
Dissociated bovine parathyroid cells were purified on gradients of Percoll and cultured overnight in serum-free medium.

[4] = test system: PTH secretion from bovine parathyroid cells; assay: PTH secretion from bovine parathyroid cells; assay type: cell-based
Experimental: PTH secretion was measured by first suspending cells in PCB containing 0.5 mM CaCl2 and 0.1% BSA.

[5] = test system: inositol phosphate formation in bovine parathyroid cells; assay: inositol phosphate formation in bovine parathyroid cells; assay type: cell-based
Experimental: After 30 seconds, the reaction was terminated by the addition of CHCl3 :MeOH:HCl and IP1 (circles) and IP3 (triangles) separated by anion exchange chromatography. Each point is the mean of 2 experiments, each performed in triplicate.
This section describes procedures measuring inositol phosphate formation. Membrane phospholipids were labeled by incubating parathyroid cells with 4 μCi/ml ^3 H-myo-inositol for 20-24 hours. Cells were then washed and resuspended in PCB containing 0.5 mM CaCl2 and 0.1% BSA. Incubations were performed in microfuge tubes in the absence or presence of various concentrations of organic polycation for different times. Reactions were terminated by the addition of 1 ml chloroform-methanol-12N HCl (200:100:1; v/v/v). Aqueous phytic acid hydrolysate (200 μl; 25 μg phosphate/tube). The tubes were centrifuged and 600 μl of the aqueous phase was diluted into 10 ml water.
Inositol phosphates were separated by ion-exchange chromatography using AG1-X8 in either the chloride- or formate-form. When only IP3 levels were to be determined, the chloride-form was used, whereas the formate form was used to resolve the major inositol phosphates (IP3, IP2, and IP1). For determination of just IP3, the diluted sample was applied to the chloride-form column and the column was washed with 10 ml 30 mM HCl followed by 6 ml 90 mM HCl and the IP3 was eluted with 3 ml 500 mM HCl. The last eluate was diluted and counted. For determination of all major inositol phosphates, the diluted sample was applied to the formate-form column and IP1, IP2, and IP3 eluted sequentially by increasing concentrations of formate buffer. The eluted samples from the formate columns were rotary evaporated, the residues brought up in cocktail, and counted.

[6] = cited from earlier work
[7] = biological target: T1, bovine parathyroid cell calcium receptor (BoPCaR 1) (Bos taurus, UniProt P35384); assay: inositol 1,4,5-triphosphate in Xenopus oocytes expressing BoPCaR 1; assay type: cell-based; conditions: 10 μg/ml, 48 hours
T1 construct: Xenopus oocytes were injected with BoPCaR 1, the 5.3 Kb cDNA encoding a bovine parathyroid cell calcium receptor; expressed in transfected cells; host or cells: Xenopus laevis oocytes injected with cRNA/cDNA of BoPCaR 1
T1 sequence (P35384 20-1085): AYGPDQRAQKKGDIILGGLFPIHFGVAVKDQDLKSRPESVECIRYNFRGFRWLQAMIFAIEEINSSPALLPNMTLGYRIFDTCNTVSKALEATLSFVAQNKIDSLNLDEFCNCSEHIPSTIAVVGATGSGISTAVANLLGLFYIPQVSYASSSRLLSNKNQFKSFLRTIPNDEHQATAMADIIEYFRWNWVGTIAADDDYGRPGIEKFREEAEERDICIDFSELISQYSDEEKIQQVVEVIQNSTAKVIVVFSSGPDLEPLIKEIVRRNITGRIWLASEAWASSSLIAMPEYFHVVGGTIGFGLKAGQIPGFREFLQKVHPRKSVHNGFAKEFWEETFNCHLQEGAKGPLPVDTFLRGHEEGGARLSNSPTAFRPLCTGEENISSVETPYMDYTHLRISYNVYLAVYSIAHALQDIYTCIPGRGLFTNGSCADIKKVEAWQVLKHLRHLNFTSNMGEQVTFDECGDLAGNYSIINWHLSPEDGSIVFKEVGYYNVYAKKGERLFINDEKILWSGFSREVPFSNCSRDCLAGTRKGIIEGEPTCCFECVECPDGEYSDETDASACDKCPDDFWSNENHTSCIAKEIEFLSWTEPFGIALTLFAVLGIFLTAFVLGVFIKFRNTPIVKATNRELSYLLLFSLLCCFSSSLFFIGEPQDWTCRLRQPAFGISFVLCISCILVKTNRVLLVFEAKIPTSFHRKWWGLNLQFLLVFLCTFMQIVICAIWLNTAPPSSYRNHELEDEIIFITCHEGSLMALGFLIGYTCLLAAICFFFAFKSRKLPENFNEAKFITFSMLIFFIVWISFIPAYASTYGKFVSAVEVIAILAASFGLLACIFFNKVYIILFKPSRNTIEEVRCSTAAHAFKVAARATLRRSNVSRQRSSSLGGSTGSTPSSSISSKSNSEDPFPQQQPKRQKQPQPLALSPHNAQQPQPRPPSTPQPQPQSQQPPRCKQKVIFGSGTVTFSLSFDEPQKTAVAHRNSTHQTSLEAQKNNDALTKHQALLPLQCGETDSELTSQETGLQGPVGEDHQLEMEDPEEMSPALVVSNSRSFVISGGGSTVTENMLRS
Text: These responses are mediated by the following series of biochemical events:
(1) Activation of phospholipase C by a pertussis toxin-sensitive guanine nucleotide regulatory (G) protein resulting in 4-7 fold increases in the levels of inositol 1,4,5-triphosphate (IP3).

[8] = test system: cyclic AMP formation in bovine parathyroid cells; assay type: cell-based
Experimental: Cells were incubated as above for PTH secretion studies and at the end of the incubation, a 0.15-ml sample was taken and transferred to 0.85 ml of hot (70° C.) water and heated at this temperature for 5-10 minutes. The tubes were subsequently frozen and thawed several times and the cellular debris sedimented by centrifugation. Portions of the supernatant were acetylated and cyclic AMP concentrations determined by radioimmunoassay.
Each value is the mean±SEM of three experiments.

net positive charge = assay type: physicochemical

COc1cccc(C(C)NCCCc2ccccc2)c1 (racemic) [NPS 467]
serum or blood Ca2+ ([1]; low calcium diet, 3 hours after dosing, rats): dose-dependent reduction in serum or whole blood
time of maximal hypocalcemic effect ([1]; returned toward control levels after 24 hours): maximal within three hours
circulating levels of PTH (circulating PTH in rats): dose-dependent reduction in circulating levels of PTH
serum albumin or phosphate levels [2]: no change in serum albumin or phosphate levels

CCCCCCCCCCCCCC(=O)O[C@@H]1[C@@H](C)[C@@]2(O)[C@@H](C=C(CO)C[C@]3(O)C(=O)C(C)=C[C@@H]23)[C@@H]2C(C)(C)[C@]12OC(C)=O [PMA, phorbol myristate acetate]
shift of concentration-response curve for [Ca2+]i ([3]; 100 nM PMA): shifts to the right
shift of concentration-response curve for PTH secretion ([4]; 100 nM PMA): shifts to the right
IP1 formation evoked by extracellular Ca2+ or spermine ([5]; 100 nM PMA, 5 minutes): depresses the formation of IP1

NCCCC[C@H](N)C(=O)O [lysine]
interaction with phospholipid vesicles [6]: not interacting to a significant extent

pertussis toxin
inhibition of the increase in IP3 by pertussis toxin [7]: 75%

protamine
increase in [Ca2+]i / mobilization of intracellular Ca2+ [3]: evoked rapid and transient increases
isoproterenol-induced cyclic AMP [8]: depressed isoproterenol-induced increases
inhibition of PTH secretion ([4]; bovine parathyroid cells): inhibit PTH secretion; also recorded: inhibited PTH secretion to the same extent
formation of inositol phosphates [5]: increases the formation of inositol phosphates
onset of increase in IP3 formation [5]: ≤ 30 s
net positive charge (net positive charge): +21
